The subject of test [1] is MOG35-55-stimulated splenocytes. Briefly: Cytokine and chemokine production by splenocytes from EAE mice (Luminex). Details: key to Peripheral Inflammatory Cytokines: IFNγ / Peripheral Inflammatory Cytokines: IL-lβ / Peripheral Inflammatory Cytokines: IL-2 / Peripheral Inflammatory Cytokines: IL-6 / Peripheral Inflammatory Cytokines: IL-17 / Peripheral Inflammatory Cytokines: TNFα / Peripheral Th2 & Anti-inflammatory Cytokines: IL-4 / Peripheral Th2 & Anti-inflammatory Cytokines: IL-5 / Peripheral Th2 & Anti-inflammatory Cytokines: IL-10 / Peripheral Th2 & Anti-inflammatory Cytokines: IL-13 / Peripheral Chemokines: CXCL1 / Peripheral Chemokines: CXCL10: ‘+’ indicate marker was significantly (p ≤ 0.05) increased in treatment group relative to vehicle; ‘−’ indicates marker was significantly (p ≤ 0.05) decreased in treatment group relative to vehicle; ○: ‘o’ indicate marker did not change relative to vehicle. The note with it: for Peripheral Chemokines: CXCL1 / Peripheral Chemokines: CXCL10 / Peripheral Inflammatory Cytokines: IFNγ / Peripheral Inflammatory Cytokines: IL-2 / Peripheral Inflammatory Cytokines: IL-6 / Peripheral Inflammatory Cytokines: IL-17 / Peripheral Inflammatory Cytokines: IL-lβ / Peripheral Inflammatory Cytokines: TNFα / Peripheral Th2 & Anti-inflammatory Cytokines: IL-4 / Peripheral Th2 & Anti-inflammatory Cytokines: IL-5 / Peripheral Th2 & Anti-inflammatory Cytokines: IL-10 / Peripheral Th2 & Anti-inflammatory Cytokines: IL-13: vs vehicle. Type of test: in vivo, mouse. On the procedure: Splenocyte Isolation & Cytokine Analysis: On day 20-21 after induction of EAE, spleens were harvested prior to transcardial perfusion. Spleens were dissected from anesthetized mice and mechanically dissociated into a single cell suspension in cold RPMI 1640 supplemented with pyruvate, L-glutamine, and 10% fetal bovine serum (henceforth referred to as RPMI). Red blood cells were lysed by incubation with ACK buffer (VWR), washed, counted, and resuspended in RPMI for cytokine analysis. Splenocytes were then stimulated with 25 μg/ml MOG35-55 and supernatants were collected 48 hours later (Khalaj et al., 2013; Moore et al., 2013). Levels of the anti-inflammatory cytokines: IL-10, IL-13, IL-4 and IL-5; pro-inflammatory cytokines IFNγ, IL-17, IL-1β TNFα, IL-6 and IL-2; and chemokines: CXCL1, CXCL10 were determined by Cytokine Mouse Magnetic Panel for Luminex (Thermo Fisher Scientific; Waltham, Mass.) and run on the xMAP MAGPIX 100™ instrument (Luminex Corporation, Austin, Tx) according to manufacturer's instructions.
During MS and EAE, peripherally activated leukocytes secrete inflammatory cytokines and chemokines as they migrate into the CNS, where they contribute to demyelination and axon damage (Fletcher et al., 2010). To characterize the effects of IndCl analogues on the peripheral immune response, splenocytes were isolated from mice 21 days post-immunization and stimulated ex vivo with MOG35-55 peptide for cytokine and chemokine analysis using a magnetic bead-based 20-plex cytokine/chemokine detection assay. Cytokines related to inflammation, CD4+ T cell polarization, immune regulation, and chemokines associated with OL apoptosis and myelination that were measured in collected supernatants are presented below.

For another test, the target named is ERβ (Homo sapiens, UniProt Q92731). The experiment in a line: Relative binding affinity (RBA) to estrogen receptor beta, radiometric measurement. As to conditions: for β/α Ratio: ratio of RBA ERβ to RBA ERα; for RBA ERβ: relative value to 100% for E2 by radiometric measurement.
Sequence of ERβ (Q92731 whole entry, species assumed): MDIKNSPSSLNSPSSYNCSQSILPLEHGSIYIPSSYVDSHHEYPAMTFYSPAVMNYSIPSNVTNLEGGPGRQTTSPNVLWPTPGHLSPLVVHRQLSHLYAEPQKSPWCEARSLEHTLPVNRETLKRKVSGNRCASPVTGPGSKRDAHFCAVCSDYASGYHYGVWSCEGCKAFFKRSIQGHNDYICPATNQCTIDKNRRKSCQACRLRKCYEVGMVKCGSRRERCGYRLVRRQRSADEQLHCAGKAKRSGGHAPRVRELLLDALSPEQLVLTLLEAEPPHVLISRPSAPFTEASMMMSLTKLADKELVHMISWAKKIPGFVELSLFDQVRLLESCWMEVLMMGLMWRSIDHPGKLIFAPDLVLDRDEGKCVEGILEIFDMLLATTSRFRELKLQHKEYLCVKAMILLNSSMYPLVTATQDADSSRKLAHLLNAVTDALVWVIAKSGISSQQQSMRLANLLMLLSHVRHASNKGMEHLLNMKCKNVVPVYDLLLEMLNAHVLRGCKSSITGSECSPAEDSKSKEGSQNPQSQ
Another test concerns callosal axons. Briefly: Callosal compound action potential (CAP) recordings in brain slices of EAE mice. Type of test: in vivo, mouse. As to conditions: vs vehicle; for N1 CAP amplitude / N2 CAP amplitude: therapeutic treatment (postEAE). On the procedure:
Electrophysiology: To assess functional conductivity across the CC, electrophysiological recordings of compound action potentials (CAPs) were measured as previously described (Crawford et al., 2009; Crawford et al., 2010). Coronal brain slices were prepared from adult (3 to 4 month old) C57BL/6 female mice. Briefly, mice were deeply anesthetized under isoflurane and decapitated. The brain was removed and submerged in partially frozen “slushy” solution of slicing buffer containing (in mM): 87 NaCl, 75 sucrose 2.5 KCl, 0.5 CaCl2), 7 MgCl2, 1.25 NaH2PO4, 25 NaHCO3, 10 glucose, 1.3 ascorbic acid, 0.1 kynurenic acid, 2.0 pyruvate, and 3.5 MOPS, bubbled with 5% CO2+95% O2 (Lauderdale et al., 2015). Coronal slices (350 μm) were prepared using a Leica VT 1000S Vibratome (Bannockburn, Ill.) and subsequently incubated for 45 minutes at 35° C. in slicing buffer. Following incubation, slices were allowed to cool to room temperature for 15 minutes then transferred to ACSF […] containing (in mM): 125 NaCl, 2.5 KCl, 2.5 CaCl2), 1.3 MgCl2, 1.25 NaH2PO4, 26.0 NaHCO3, and 15 glucose, oxygenated with 5% CO2+95% O2. Slices were equilibrated in the standard ACSF for a minimum of 15-20 minutes prior to electrophysiological recordings. During electrophysiological recordings, slices were continuously perfused with oxygenated ACSF maintained at a flow rate of 1 mL/min. For recording CAPs, an Axon Digidata 1550 was used with a Multiclamp 700B Amplifier and PClamp 10.4 Software (Molecular Devices, Sunnyvale, Calif.). Continuous recordings for CC conduction experiments were low-pass filtered at 10 kHz and digitized at 200 kHz. All experiments were conducted at room temperature (24-26° C.). To stimulate the CC fiber tract, a concentric bipolar stimulating electrode (FHC Neural microTargeting Worldwide, Bowdoin, Me., USA) was placed approximately 1 mm away across from a recoding electrode (glass micropipette filled with ACSF) with a resistance of 1-3 MO. To elicit CAPs, an episodic stimulation protocol was created consisting of 8 consecutive sweeps, each 12 ms long, with a 5-sec delay between sweeps and an immediate stimulus (0.01 ms duration) after the start of each sweep (Crawford et al., 2009a). Stimulus intensity was adjusted manually using an ISO-Flex stimulator (A.M.P.I). Standardized input-output plots were generated in current clamp mode for each slice by averaging at least 4 consecutive sweeps together to […] the signal-to-noise ratio. […] Electrophysiology data were analyzed using Clampfit 10.4 software (Molecular Devices, Sunnyvale, Calif.) and OriginPro 2016 64 Bit (OriginLab Corporation)
Large white matter tracts, such as the CC, are especially vulnerable to demyelination and axonal damage in MS and EAE (Ozturk et al., 2010; Mangiardi et al., 2011). Compound action potential (CAP) recordings are a valuable technique for assessing demyelination and damage in these areas through their impact on functional conductivity (Crawford et al., 2009; Crawford et al., 2010; Moore et al., 2013).

The mark [2] stands for this setting: Post (therapeutic, postEAE) treatment of EAE mice.
Where [3] appears, read: Pre (prophylactic, preEAE) E2 treatment of EAE mice.
The mark [4] stands for this setting: prophylactic E2 (preEAE), day 21, vs vehicle.
The mark [5] stands for this setting: therapeutic treatment (postEAE), day 21, vs vehicle.

This note sets out measurements from patent US11673866B2, “Estrogen receptor beta ligands for the prevention and treatment of multiple sclerosis (MS) and other demyelinating, inflammatory and neurodegenerative diseases” (The Board of Trustees of the University of Illinois, priority 2018, dated 2023).

Molecules are shown by their SMILES. Entries after “also recorded” stand apart in the source; their conditions may differ.

Regarding `C[C@]12CC[C@@H]3c4ccc(O)cc4CC[C@H]3[C@@H]1CC[C@@H]2O` [E2, 170 estradiol], in test [1] (setting [2]), the “Peripheral Chemokines: CXCL1” value was “+”, the “Peripheral Chemokines: CXCL10” value was “−”, the “Peripheral Inflammatory Cytokines: IFNγ” value is “−” and the “Peripheral Inflammatory Cytokines: IL-2” value is “○”. In addition, in test [1] (setting [2]), the “Peripheral Inflammatory Cytokines: IL-6” value was “−”, the “Peripheral Inflammatory Cytokines: IL-17” value is given as “−”, the “Peripheral Inflammatory Cytokines: IL-lβ” value was “○” and the “Peripheral Inflammatory Cytokines: TNFα” value is “○”. In test [1] (setting [2]), the “Peripheral Th2 & Anti-inflammatory Cytokines: IL-4” value was “○”, the “Peripheral Th2 & Anti-inflammatory Cytokines: IL-5” value is listed as “○”, the “Peripheral Th2 & Anti-inflammatory Cytokines: IL-10” value was “○” and the “Peripheral Th2 & Anti-inflammatory Cytokines: IL-13” value was “○”. In test [1] (setting [3]), the “Peripheral Chemokines: CXCL1” value is listed as “+”, the “Peripheral Chemokines: CXCL10” value is “−”, the “Peripheral Inflammatory Cytokines: IFNγ” value is “−” and the “Peripheral Inflammatory Cytokines: IL-2” value is “−”. Besides, in test [1] (setting [3]), the “Peripheral Inflammatory Cytokines: IL-6” value is reported as “−”, the “Peripheral Inflammatory Cytokines: IL-17” value is given as “−”, the “Peripheral Inflammatory Cytokines: IL-lβ” value is “○” and the “Peripheral Inflammatory Cytokines: TNFα” value was “○”. In addition, in test [1] (setting [3]), the “Peripheral Th2 & Anti-inflammatory Cytokines: IL-4” value is “○”, the “Peripheral Th2 & Anti-inflammatory Cytokines: IL-5” value is listed as “○”, the “Peripheral Th2 & Anti-inflammatory Cytokines: IL-10” value is “○” and the “Peripheral Th2 & Anti-inflammatory Cytokines: IL-13” value is reported as “○”. Moreover, in test [1] (setting [4]), the “IL-1β production by splenocytes” value is given as “no effect” and the “TNFα production by splenocytes” value was “no effect”.

`Oc1ccc(-n2nc3ccc(O)cc3c2Cl)cc1` [IndCl, chloroindazole]: at ERβ, the “β/α Ratio” value was determined as 107 and the “RBA ERβ” value amounted to 32.1%. Moreover, in the test on callosal axons (setting [2]), the “Electrophysiology: N1 amplitude” value is reported as “+”. Further, in the test with callosal axons, the “N1 CAP amplitude” value was “significant improvement; also recorded: improved”. Moreover, in test [1] (setting [2]), the “Peripheral Chemokines: CXCL1” value is given as “+”, the “Peripheral Chemokines: CXCL10” value is “−”, the “Peripheral Inflammatory Cytokines: IFNγ” value is reported as “−” and the “Peripheral Inflammatory Cytokines: IL-2” value was “○”. Moreover, in test [1] (setting [2]), the “Peripheral Inflammatory Cytokines: IL-6” value was “○”, the “Peripheral Inflammatory Cytokines: IL-17” value is recorded as “○”, the “Peripheral Inflammatory Cytokines: IL-lβ” value was “+” and the “Peripheral Inflammatory Cytokines: TNFα” value is “○”. Also, in test [1] (setting [2]), the “Peripheral Th2 & Anti-inflammatory Cytokines: IL-4” value is “○”, the “Peripheral Th2 & Anti-inflammatory Cytokines: IL-5” value is listed as “○”, the “Peripheral Th2 & Anti-inflammatory Cytokines: IL-10” value is “○” and the “Peripheral Th2 & Anti-inflammatory Cytokines: IL-13” value is “○”. In test [1] (setting [5]), the “CXCL1 production by splenocytes” value is “increased”, the “CXCL10 production by splenocytes” value was “decreased”, the “IFNγ production by splenocytes” value is on record as “significantly decreased” and the “IL-1β production by splenocytes” value is “increased”. Further, the “Th2 (IL-4, IL-5, IL-13) and IL-10 cytokine production by splenocytes” value in test [1] (setting [5]) is “no effect”.

With `Oc1ccc(-n2nc3ccc(O)cc3c2Cl)c(Cl)c1` [IndCl-o-Cl, 3-chloro-2-(2-chloro-4-hydroxyphenyl)-2H-indazol-5-ol], on ERβ, the “β/α Ratio” value is listed as 27.1 and the “RBA ERβ” value is on record as 10.9%. Besides, in the test with callosal axons (setting [2]), the “Electrophysiology: N1 amplitude” value is listed as “+” and the “Electrophysiology: N2 amplitude” value is on record as “+”. Further, in the test on callosal axons, the “N1 CAP amplitude” value is “improved” and the “N2 CAP amplitude” value was “increased”. For the same molecule, the “N2 CAP amplitude” value in the test on callosal axons (listed as Ind-o-Cl) is recorded as “small but significant increase”. Besides, in test [1] (setting [2]), the “Peripheral Chemokines: CXCL1” value is listed as “+”, the “Peripheral Chemokines: CXCL10” value is “−”, the “Peripheral Inflammatory Cytokines: IFNγ” value was “−” and the “Peripheral Inflammatory Cytokines: IL-2” value is “○”. In test [1] (setting [2]), the “Peripheral Inflammatory Cytokines: IL-6” value was “−”, the “Peripheral Inflammatory Cytokines: IL-17” value is reported as “−”, the “Peripheral Inflammatory Cytokines: IL-lβ” value was “○” and the “Peripheral Inflammatory Cytokines: TNFα” value was “○”. For the same molecule, in test [1] (setting [2]), the “Peripheral Th2 & Anti-inflammatory Cytokines: IL-4” value is recorded as “○”, the “Peripheral Th2 & Anti-inflammatory Cytokines: IL-5” value is “○”, the “Peripheral Th2 & Anti-inflammatory Cytokines: IL-10” value is listed as “○” and the “Peripheral Th2 & Anti-inflammatory Cytokines: IL-13” value is “−”. In test [1] (setting [5]), the “IFNγ production by splenocytes” value was “significantly decreased”, the “IL-6 production by splenocytes” value is listed as “significantly decreased” and the “IL-13 production by splenocytes” value is listed as “attenuated”. Moreover, the “IFNγ production by splenocytes” value in test [1] (therapeutic treatment (postEAE), day 21, vs vehicle, listed as o-Cl) is reported as “decreased”.

Take `Cc1cc(O)ccc1-n1nc2ccc(O)cc2c1Cl` [IndCl-o-Me, 3-chloro-2-(4-hydroxy-2-methylphenyl)-2H-indazol-5-ol]: at ERβ, the “β/α Ratio” value turned out to be 48.9 and the “RBA ERβ” value came out at 21.1%. Besides, in the test on callosal axons (setting [2]), the “Electrophysiology: N1 amplitude” value was “+”. Further, the “N1 CAP amplitude” value in the test with callosal axons is listed as “improved”. In addition, in test [1] (setting [2]), the “Peripheral Chemokines: CXCL1” value is given as “+”, the “Peripheral Chemokines: CXCL10” value was “−”, the “Peripheral Inflammatory Cytokines: IFNγ” value was “−” and the “Peripheral Inflammatory Cytokines: IL-2” value is reported as “○”. For the same molecule, in test [1] (setting [2]), the “Peripheral Inflammatory Cytokines: IL-6” value is on record as “−”, the “Peripheral Inflammatory Cytokines: IL-17” value is recorded as “−”, the “Peripheral Inflammatory Cytokines: IL-lβ” value is reported as “○” and the “Peripheral Inflammatory Cytokines: TNFα” value is “○”. For the same molecule, in test [1] (setting [2]), the “Peripheral Th2 & Anti-inflammatory Cytokines: IL-4” value is given as “○”, the “Peripheral Th2 & Anti-inflammatory Cytokines: IL-5” value is “○”, the “Peripheral Th2 & Anti-inflammatory Cytokines: IL-10” value is “○” and the “Peripheral Th2 & Anti-inflammatory Cytokines: IL-13” value was “−”. Further, in test [1] (setting [5]), the “IFNγ production by splenocytes” value is “significantly decreasing”, the “IL-6 production by splenocytes” value is on record as “significantly decreasing”, the “IL-13 production by splenocytes” value is on record as “attenuated” and the “IL-17 production by splenocytes” value is listed as “significantly decreasing; also recorded: reducing”. The “IFNγ production by splenocytes” value in test [1] (therapeutic treatment (postEAE), day 21, vs vehicle, listed as o-Me) is listed as “decreased”.
